Test results taken from patent US8410107B2, “N-pyridin-3-yl or N-pyrazin-2-yl carboxamides” (Hoffmann-La Roche Inc., priority 2010, dated 2013).

Tests used:
[1] = target: T1, human CB2 receptor (Homo sapiens, UniProt P34972); assay: CB2 receptor affinity ([3H]-CP-55,940 displacement, HEK cell membranes); type: binding; details: displacement of radioligand [3H]-CP-55,940
T1 construct: expressed in transfected cells; host or cells: human embryonic kidney (HEK) cells, Semliki Forest Virus system, membrane preparations
T1 sequence (P34972 whole entry): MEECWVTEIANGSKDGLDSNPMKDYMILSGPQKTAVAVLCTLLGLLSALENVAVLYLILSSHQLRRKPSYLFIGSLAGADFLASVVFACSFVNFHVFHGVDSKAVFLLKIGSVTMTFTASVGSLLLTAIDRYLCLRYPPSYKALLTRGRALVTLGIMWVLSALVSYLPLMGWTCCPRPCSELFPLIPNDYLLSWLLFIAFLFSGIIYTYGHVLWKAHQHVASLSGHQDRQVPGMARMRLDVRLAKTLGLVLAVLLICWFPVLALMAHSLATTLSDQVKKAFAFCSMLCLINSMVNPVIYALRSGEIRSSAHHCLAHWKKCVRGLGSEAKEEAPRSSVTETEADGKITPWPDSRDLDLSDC
Protocol: (§1) The affinity of the compounds of the invention for cannabinoid CB2 receptors was determined using membrane preparations of human embryonic kidney (HEK) cells in which the human CB2 receptor is transiently transfected using a Semliki Forest Virus system in conjunction with [^3H]-CP-55,940 as radioligand. After incubation of freshly prepared cell membrane preparation with the [^3H]-ligand, with or without addition of compounds of the invention, separation of bound and free ligand was performed by filtration over glass fiber filters. Radioactivity on the filter was measured by scintillation counting.
(§2) The ability of the compounds to displace the radioligand [^3H]-CP-55,940 was measured at a concentration of 10 μM and values provided as [% inhibition @ 10 μM] both for the CB1 and CB2 receptor assay, The lower % inhibition is, the lower the likelihood of side effects based on CB1 or CB2 receptor inhibition is.

[2] = test system: ABCA1 protein; assay: Detection of upregulation of ABCA1 protein in cells (ApoA-I binding, high content image analysis); type: cell-based; details: THP-1 macrophage cells; for EC50: ABCA1 protein increasing efficacy; for % increase of ABCA1 at 3 μM: 24 hrs with compound
Protocol: The ability of compounds of the invention to increase the level of ABCA1 protein is determined in replicate cultures of THP-1 macrophage cells in 96-well microplates. Cells are plated at an initial density of 100,000 cells/well in 100 μl medium and differentiated to adherent macrophages with the addition of PMA (100 nM) for 68 hrs in 10% fetal bovine serum, 3 μl/L of b-mercaptoethanol, RPMI-1640 medium. Then, cells are incubated with RPMI-1640 medium containing 1% FCS, 25 μg/ml acetylated LDL, for 24 hours at 37°. Following incubation with acetylated LDL, cells are washed twice with 50 μl PBS and incubated with 100 μl of RPMI-1640 medium containing the compound of interest solubilized in DMSO for an additional 24 hrs. The final DMSO concentration in presence of cells is maintained at 0.5%. ApoA-I binding assay using High Content Image Analysis is initiated by replacing with fresh medium, RPMI without Phenol Red, 0.2% BSA containing AlexaFluor®647 labeled ApoA-I for 2 h/37° C./5% CO2. Then, cells are fixed with 4% Formaldehyde inPBS (15 min, RT). Following Nuclei are stained with Hoechst solution (3 μM PBS) and Cytoplasm with Cell Mask Blue (2 μg/ml PBS), 15 min, RT. Finally the stained cells are fixed with a second round of formaldehyde treatment. Fixed stained cells are washed and kept in PBS at 4° C. and can be read immediately until one month after preparation.
The Alexa Fluor 647-labeled Apolipoprotein A-I (20 nM) was prepared as follows: Human recombinant Apolipoprotein A-I (ApoA-I) was exchanged to a buffer of 0.02 M NaHCO3 at pH 8.2 on an NAP desalting column (GE Healthcare) and brought to a concentration to 40 μM (1.13 mg/ml) by adjustment with the same buffer. The ApoA-I was fluorescently labeled by incubation with Alexa Fluor carboxylic acid succimidyl ester. (Alexa Fluor 647, Invitrogen A-20006) at a 2:1 molar ratio (Alexa to ApoA-I) for 1 h under shaking at RT. The remaining unconjugated label was removed by buffer exchange to 0.02M NaHCO3 at pH 8.2.
Imaging and data collection were performed on an OPERA confocal microplate imaging reader using a 20× water immersion objective and UV360 or 405 laser to identify the cell nuclei and a 635 laser to identify the fluorescent ApoA-I. Eight fields of view are captured per well. Image capture and analysis was performed with the Acapella software. Background fluorescence detected in control wells without ApoA-I was subtracted.
Using XLfit3 program (ID Business Solutions Ltd. UK), the model 205 for Dose Response One Site is used to calculate the EC50 values. The compounds of the present invention increase the level of ABCA1 protein by more than 45% at a concentration of 3 μM. […] Even more preferably, the compounds of the present invention have EC50 values in a range of 0.1 μM to 3 μM.

[3] = target: T2, human CB1 receptor (Homo sapiens, UniProt P21554); assay: CB1 receptor affinity ([3H]-CP-55,940 displacement, HEK cell membranes); type: binding; details: displacement of radioligand [3H]-CP-55,940
T2 construct: expressed in transfected cells; host or cells: human embryonic kidney (HEK) cells, Semliki Forest Virus system, membrane preparations
T2 sequence (P21554 whole entry): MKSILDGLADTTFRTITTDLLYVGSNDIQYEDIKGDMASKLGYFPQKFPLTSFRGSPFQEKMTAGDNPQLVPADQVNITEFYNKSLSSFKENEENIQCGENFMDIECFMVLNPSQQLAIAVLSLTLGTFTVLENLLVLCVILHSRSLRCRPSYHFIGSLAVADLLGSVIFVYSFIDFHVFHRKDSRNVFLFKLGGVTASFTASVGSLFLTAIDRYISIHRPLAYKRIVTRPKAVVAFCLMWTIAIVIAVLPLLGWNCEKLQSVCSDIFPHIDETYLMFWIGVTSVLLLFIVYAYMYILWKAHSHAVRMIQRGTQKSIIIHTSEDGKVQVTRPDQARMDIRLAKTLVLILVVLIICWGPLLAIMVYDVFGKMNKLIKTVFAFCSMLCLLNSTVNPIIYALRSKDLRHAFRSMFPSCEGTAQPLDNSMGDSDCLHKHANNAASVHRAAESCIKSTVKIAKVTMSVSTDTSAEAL
Protocol: as §1, with “cannabinoid” for “cannabinoid CB2”, “CB1” for “CB2”, “[3H]-CP-55,940” for “[^3H]-CP-55,940”
as §2

| inhibition at 10 µM [1] [%] | inhibition at 10 µM [3] [%] | SMILES | EC50 [2] [nM] | % increase of ABCA1 at 3 μM [2] [% @ 3 μM] |
| --- | --- | --- | --- | --- |
| 9 | 34 | Cn1nccc1C(=O)Nc1cnc(OCC(F)(F)F)c(-c2ccc(Cl)cc2)c1 [Example 20, 1-methyl-1H-pyrazole-5-carboxylic acid[5-(4-chloro-phenyl)-6-(2,2,2-trifluoro-ethoxy)-pyridin-3-yl]-amide] | 6400 | – |
| 1 | 29 | Cc1nc(C)c(C(=O)Nc2cnc(OCC(F)(F)F)c(-c3ccc(Cl)cc3)c2)o1 [Example 21, 2,4-dimethyl-5-oxazolecarboxylic acid[5-(4-chloro-phenyl)-6-(2,2,2-trifluoro-ethoxy)-pyridin-3-yl]-amide] | 1370 | – |
| 8 | 45 | O=C(Nc1cnc(OCC(F)(F)F)c(-c2ccc(Cl)cc2)c1)c1ccns1 [Example 22, 5-isothiazolecarboxylic acid[5-(4-chloro-phenyl)-6-(2,2,2-trifluoro-ethoxy)-pyridin-3-yl]-amide] | – | >45 |
| -8 | 12 | Cc1cc(C(=O)Nc2cnc(OCC(F)(F)F)c(-c3ccc(Cl)cc3)c2)n[nH]1 [Example 23, 5-methyl-1H-pyrazole-3-carboxylic acid[5-(4-chloro-phenyl)-6-(2,2,2-trifluoro-ethoxy)-pyridin-3-yl]-amide] | 720 | – |
| -1 | 25 | O=C(Nc1cnc(OCC(F)(F)F)c(-c2ccc(Cl)cc2)c1)c1cc[nH]n1 [Example 24, 1H-pyrazole-3-carboxylic acid[5-(4-chloro-phenyl)-6-(2,2,2-trifluoro-ethoxy)-pyridin-3-yl]-amide] | 2310 | – |
| -1 | 25 | Cc1cc(C(=O)Nc2cnc(OCC(F)(F)F)c(-c3ccc(Cl)cc3)c2)ccn1 [Example 25, N-[5-(4-chloro-phenyl)-6-(2,2,2-trifluoro-ethoxy)-pyridin-3-yl]-2-methyl-4-pyridinecarboxylic acid amide] | 2650 | – |
| 11 | 37 | Cc1cnc(C(=O)Nc2cnc(OCC(F)(F)F)c(-c3ccc(Cl)cc3)c2)s1 [Example 26, 5-methyl-2-thiazole-carboxylic acid[5-(4-chloro-phenyl)-6-(2,2,2-trifluoro-ethoxy)-pyridin-3-yl]-amide] | – | >45 |
| 10 | 47 | Cc1nnsc1C(=O)Nc1cnc(OCC(F)(F)F)c(-c2ccc(Cl)cc2)c1 [Example 27, 4-methyl-1,2,3-thiadiazole-5-carboxylic acid[5-(4-chloro-phenyl)-6-(2,2,2-trifluoro-ethoxy)-pyridin-3-yl]-amide] | – | >45 |
| -6 | 36 | Cc1ccc(C(=O)Nc2cnc(OCC(F)(F)F)c(-c3ccc(Cl)cc3)c2)cn1 [Example 28, N-[5-(4-chloro-phenyl)-6-(2,2,2-trifluoro-ethoxy)-pyridin-3-yl]-6-methyl-3-pyridinecarboxylic acid amide] | – | >45 |
| 19 | 41 | Cc1ncccc1C(=O)Nc1cnc(OCC(F)(F)F)c(-c2ccc(Cl)cc2)c1 [Example 29, N-[5-(4-chloro-phenyl)-6-(2,2,2-trifluoro-ethoxy)-pyridin-3-yl]-2-methyl-3-pyridinecarboxylic acid amide] | – | >45 |
| -4 | 27 | O=C(Nc1cnc(OCC(F)(F)F)c(-c2ccc(Cl)cc2)c1)c1ccno1 [Example 30, 5-isoxazolecarboxylic acid[5-(4-chloro-phenyl)-6-(2,2,2-trifluoro-ethoxy)-pyridin-3-yl]-amide] | 3860 | – |
| 7 | 44 | Cc1noc(C)c1C(=O)Nc1cnc(OCC(F)(F)F)c(-c2ccc(Cl)cc2)c1 [Example 31, 3,5-dimethyl-4-isoxazolecarboxylic acid[5-(4-chloro-phenyl)-6-(2,2,2-trifluoro-ethoxy)-pyridin-3-yl]-amide] | – | >45 |
| 0.9 | 21 | O=C(Nc1cnc(OCC(F)(F)F)c(-c2ccc(Cl)cc2)c1)c1ccnc(O)c1 [Example 32, N-[5-(4-chloro-phenyl)-6-(2,2,2-trifluoro-ethoxy)-pyridin-3-yl]-1,2-dihydro-2-oxo-4-pyridinecarboxylic acid amide] | 1000 | – |
| -2 | 22 | Cc1nn(C)cc1C(=O)Nc1cnc(OCC(F)(F)F)c(-c2ccc(Cl)cc2)c1 [Example 33, 1,3-dimethyl-1H-pyrazole-4-carboxylic acid[5-(4-chloro-phenyl)-6-(2,2,2-trifluoro-ethoxy)-pyridin-3-yl]-amide] | – | >45 |
| 10 | 31 | O=C(Nc1cnc(OCC(F)(F)F)c(-c2ccc(Cl)cc2)c1)c1ccncn1 [Example 34, 4-pyrimidinecarboxylic acid[5-(4-chloro-phenyl)-6-(2,2,2-trifluoro-ethoxy)-pyridin-3-yl]-amide] | 2400 | – |
| -3 | 18 | O=C(Nc1cnc(OCC(F)(F)F)c(-c2ccc(Cl)cc2)c1)c1nccs1 [Example 35, 2-thiazolecarboxylic acid[5-(4-chloro-phenyl)-6-(2,2,2-trifluoro-ethoxy)-pyridin-3-yl]-amide] | – | >45 |
| 2 | 18 | Cc1cccnc1C(=O)Nc1cnc(OCC(F)(F)F)c(-c2ccc(Cl)cc2)c1 [Example 36, 3-methyl-2-pyridinecarboxylic acid[5-(4-chloro-phenyl)-6-(2,2,2-trifluoro-ethoxy)-pyridin-3-yl]-amide] | 510 | – |
| 8 | 27 | Cc1ocnc1C(=O)Nc1cnc(OCC(F)(F)F)c(-c2ccc(Cl)cc2)c1 [Example 37, 5-methyl-4-oxazolecarboxylic acid[5-(4-chloro-phenyl)-6-(2,2,2-trifluoro-ethoxy)-pyridin-3-yl]-amide] | – | >45 |
| 15 | 12 | Cc1ccc(-c2cc(NC(=O)c3cccnc3)cnc2OCC(F)(F)F)cc1C [Example 38, N-(5-(3,4-dimethylphenyl)-6-(2,2,2-trifluoroethoxy)pyridin-3-yl)nicotinamide] | 2910 | – |
| 16 | 19 | Cc1cc(-c2cc(NC(=O)c3cccnc3)cnc2OCC(F)(F)F)ccc1Cl [Example 39, N-(5-(4-chloro-3-methylphenyl)-6-(2,2,2-trifluoroethoxy)pyridin-3-yl)nicotin-amide] | 2230 | – |
